# Measurements taken from patent US20230027066A1 (Urovant Sciences GmbH, priority 2019, published 2023).
# Test system: men and women with overactive bladder
# Assay: Phase 3 study of vibegron 75 mg vs placebo and tolterodine ER 4 mg, 12 weeks, efficacy (voiding and urine volume diary)
# Assay type: in vivo, human
# Conditions: for Urgency 50% responders, Active - Placebo CMH Difference / Patients with at Least 50% Reduction in Urgency Episodes, Adjusted (%) / Patients with at Least 50% Reduction in Urgency Episodes, Adjusted n / Patients with at Least 50% Reduction in Urgency Episodes, Unadjusted (%) / Patients with at Least 50% Reduction in Urgency Episodes, Unadjusted n: Dry population; for Urgency Episodes, Week 12 CFB Mean: descriptive statistics; for Micturitions: LS Mean (95% CI): Table 32, week 12
# Procedure: Enrollment of patients included individuals with OAB Wet (those with UUI, the involuntary loss of urine accompanied by urgency) and OAB Dry (those without UUI). A total of 1,518 patients were randomized across 215 study sites into one of three groups for a 12-week treatment period.
# The study consisted of a Screening Period (1 to 5 weeks), a single-blind Run-in Period (2 weeks), a randomized double-blind Treatment Period (12 weeks), and a Follow-up Period (4 weeks).
# Tolterodine ER 4 mg was the active control. […] Between the Baseline and Week 12 Visits, patients had study assessments at Week 4 and Week 8.
# The Patient Voiding Diary was used by participants (via the eDiary or paper Diary) to record the frequency of daily OAB symptoms including all micturitions, urgency, incontinence, and main reason for incontinence by selecting the respective box for each symptom occurring during the course of a given day and night.
# Urine volume data were collected separately by patients using the Urine Volume component of the eDiary, or the paper Urine Volume Chart. The Urine Volume Chart is a tool used in clinical practice and clinical investigation to assess voiding functions over a 24-hour period and is regarded as a useful instrument in the investigation of patients with voiding symptoms. Urine volume may be collected during any one (1) of the 7 Diary Days prior to the visit, and it should be recorded for ˜24 hours starting from the time the patient gets up for the day and continues until the time the patient gets up for the day on the next day.
# For the purpose of this study, the number of micturitions was defined as the number of times a patient has voided in the toilet as indicated on the Patient Voiding Diary. Average daily micturitions were calculated using the daily entries in the Patient Voiding Diary, which was completed over the 7 days prior to each study visit. Average daily number of micturitions were calculated as the total number of micturitions that occurred on a Complete Diary Day divided by the number of Complete Diary Days in the Patient Voiding Diary. A complete diary day required confirmation by the patient in the Patient Voiding Diary that all voids and leakages had been recorded for the diary day. Baseline was defined as the average number of micturitions occurring during the last evaluable diary prior to the Baseline Visit.
# The number of UUI episodes was defined as the number of times a patient had checked “urge” as the reason for accidental urine leakage. Average daily UUI episodes at each study visit were calculated in the same manner as described above for the micturition endpoint. The UUI endpoint were analyzed using only OAB Wet patients.
# For the analysis of the co-primary endpoints (change from baseline in average number of daily micturitions at Week 12 and change from baseline in average number of daily urge urinary incontinence episodes at Week 12, and placebo adjustment of each), a mixed model for repeated measure (MMRM) with restricted maximum likelihood estimation was used. This model corrects for dropout and accounts for the fact that measurements taken on the same patient over time tend to be correlated by using all available information on patients within the same covariate set to derive an estimate of the treatment effect for a dropout-free population. The analysis model for each efficacy endpoint includes terms for treatment, visit, OAB Type (Wet vs Dry), Sex (Female vs Male), Region (US vs Rest of World), baseline score, and interaction of visit by treatment.
# Primary inferences were drawn from treatment differences for the changes from baseline derived from the MMRM models at Week 12. As part of secondary objectives, the treatment differences for each post baseline visit were also derived using the same MMRM model. […]
# [1] = No prior anticholinergic use during the prior 12 months
# [2] = No prior mirabegron use during the prior 12 months
# [3] = Overall, events of Events/Censored
# [4] = Prior anticholinergic use during the prior 12 months
# [5] = Prior mirabegron use during the prior 12 months
# [6] = Week 2, events of Events/Censored
# [7] = Week 4, events of Events/Censored
structure (smiles),measurement,setting,value
"Cc1ccc(O)c([C@H](CCN(C(C)C)C(C)C)c2ccccc2)c1 [Tolterodine ER, tolterodine, reference compound]","Urgency 50% responders, Active - Placebo CMH Difference",baseline to Week 2,2.8
same,"Patients with at Least 50% Reduction in Urgency Episodes, Adjusted (%)",baseline to Week 4,20.6%
same,"Patients with at Least 50% Reduction in Urgency Episodes, Adjusted n",baseline to Week 4,20
same,"Patients with at Least 50% Reduction in Urgency Episodes, Unadjusted (%)",baseline to Week 4,25.5%
same,"Patients with at Least 50% Reduction in Urgency Episodes, Unadjusted n",baseline to Week 4,25
same,"Urgency 50% responders, Active - Placebo CMH Difference",baseline to Week 4,3.5
same,"Patients with at Least 50% Reduction in Urgency Episodes, Adjusted (%)",baseline to Week 8,28.5%
same,"Patients with at Least 50% Reduction in Urgency Episodes, Adjusted n",baseline to Week 8,28
same,"Patients with at Least 50% Reduction in Urgency Episodes, Unadjusted (%)",baseline to Week 8,30.6%
same,"Patients with at Least 50% Reduction in Urgency Episodes, Unadjusted n",baseline to Week 8,30
same,"Urgency 50% responders, Active - Placebo CMH Difference",baseline to Week 8,8.7
same,"Patients with at Least 50% Reduction in Urgency Episodes, Adjusted (%)",baseline to Week 12,29.0%
same,"Patients with at Least 50% Reduction in Urgency Episodes, Adjusted n",baseline to Week 12,28
same,"Patients with at Least 50% Reduction in Urgency Episodes, Unadjusted (%)",baseline to Week 12,32.7%
same,"Patients with at Least 50% Reduction in Urgency Episodes, Unadjusted n",baseline to Week 12,32
same,"Urgency 50% responders, Active - Placebo CMH Difference",baseline to Week 12,5.8
same,"Urgency Episodes, Week 12 CFB Mean",Males with BPH,−3.29
same,"Urgency Episodes, Week 12 CFB Mean",Males without BPH,−2.32
same,"Urgency Episodes, Week 12 CFB Mean",No Prior ACH Use in last 12 Mo.,−2.62
same,"Urgency Episodes, Week 12 CFB Mean",No Prior B3 Agonist Use in last 12 Mo.,−2.56
same,"Micturitions, 12-week change",[1],−1.8
same,"UUI Episodes, 12-week change",[1],−1.9
same,"Micturitions, 12-week change",[2],−1.8
same,"UUI Episodes, 12-week change",[2],−1.8
same,"Overall Time to First 50% Decrease in Urgency Episodes, 25th Percentile",Overall,4.3 weeks
same,"Overall Time to First 50% Decrease in Urgency Episodes, 50th Percentile",Overall,12.6 weeks
same,"Overall Time to First 50% Decrease in Urgency Episodes, Median (95% CI)",Overall,12.6 (12.3 to 12.9) weeks
same,"Overall Time to First 100% Decrease in UUI Episodes, 25th Percentile",Overall,12.1 weeks
same,"Overall Time to First 100% Decrease in UUI Episodes, 75th Percentile",Overall,16.0 weeks
same,"Overall Time to First 100% Decrease in UUI Episodes, Median (95% CI)",Overall,13.1 (12.7 to 16.0) weeks
same,"Urgency Episodes, Week 12 CFB Mean",Overall,−2.57
same,"First 50% Decrease in Urgency Episodes, Events",[3],187/230
same,"First 100% Decrease in UUI Episodes, Events",[3],93/226
same,"Urgency Episodes, Week 12 CFB Mean",Prior ACH Use in last 12 Mo.,−2.23
same,"Urgency Episodes, Week 12 CFB Mean",Prior B3 Agonist Use in last 12 Mo.,−2.72
same,"Micturitions, 12-week change",[4],−1.52
same,"UUI Episodes, 12-week change",[4],−0.98
same,"Micturitions, 12-week change",[5],−1.30
same,"UUI Episodes, 12-week change",[5],−0.65
same,Micturitions: LS Mean (95% CI),Age <65 years,−0.2 (−0.6 to 0.2)
same,Micturitions: LS Mean (95% CI),Age ≥65 years,−0.3 (−0.8 to 0.2)
same,Micturitions: LS Mean (95% CI),Age ≥75 years (posthoc analysis),−0.4 (−1.4 to 0.6)
same,Micturitions: LS Mean (95% CI),Females,−0.3 (−0.7 to 0.0)
same,Micturitions: LS Mean (95% CI),Males,0.1 (−0.7 to 0.9)
same,Micturitions: LS Mean (95% CI),Non-White,−0.1 (−0.8 to 0.6)
same,Micturitions: LS Mean (95% CI),OAB Type: Dry,−0.3 (−1.0 to 0.3)
same,Micturitions: LS Mean (95% CI),OAB Type: Wet,−0.3 (−0.6 to 0.1)
same,Micturitions: LS Mean (95% CI),Overall,−0.3 (−0.6 to 0.1)
same,Micturitions: LS Mean (95% CI),Region: Non-US,0.4 (−0.6 to 1.4)
same,Micturitions: LS Mean (95% CI),Region: US,−0.3 (−0.7 to 0.0)
same,Micturitions: LS Mean (95% CI),White,−0.3 (−0.7 to 0.0)
same,"Average Daily Number of Total Incontinence, Mean (SD)",Week 2,2.75 (2.743)
same,"Average daily number of urgency episodes, Mean (SD)",Week 2,6.30 (3.989)
same,"Average volume voided per micturition, Active - Placebo LS Mean Difference",Week 2,10.2 mL
same,"Change from Baseline in Average Daily Number of Total Incontinence, LS Mean (SE)",Week 2,−1.3 (0.15)
same,"Change from baseline in average daily number of urgency episodes, LS Mean",Week 2,−1.5
same,"Change from baseline in average volume voided per micturition, LS Mean (SE)",Week 2,12.5 (3.20) mL
same,Estimated Incidence of Subjects with 50% Decrease from Baseline (urgency episodes),Week 2,18.0
same,Estimated Incidence of Subjects with 100% Decrease from Baseline (UUI episodes),Week 2,5.6
same,"Total Incontinence, Active - Placebo LS Mean Difference (SE)",Week 2,−0.5 (0.15)
same,"Urgency episodes, Active - Placebo LS Mean Difference",Week 2,−0.6
same,"First 50% Reduction in Urgency Episodes, Events",[6],75/342
same,"First 100% Reduction in UUI Episodes, Events",[6],18/301
same,"Average volume voided per micturition, Week 2 Mean (SD)","Week 2, vibegron 75 mg, tolterodine ER 4 mg",156.7 (71.23) mL
same,"Average Daily Number of Total Incontinence, Mean (SD)",Week 4,2.54 (2.784)
same,"Average daily number of urgency episodes, Mean (SD)",Week 4,6.00 (4.097)
same,"Average volume voided per micturition, Active - Placebo LS Mean Difference",Week 4,8.9 mL
same,"Average volume voided per micturition, Week 4 Mean (SD)",Week 4,160.2 (72.76) mL
same,"Change from Baseline in Average Daily Number of Total Incontinence, LS Mean (SE)",Week 4,−1.6 (0.15)
same,"Change from baseline in average daily number of urgency episodes, LS Mean",Week 4,−1.8
same,"Change from baseline in average volume voided per micturition, LS Mean (SE)",Week 4,13.3 (3.39) mL
same,Estimated Incidence of Subjects with 50% Decrease from Baseline (urgency episodes),Week 4,19.4
same,Estimated Incidence of Subjects with 100% Decrease from Baseline (UUI episodes),Week 4,7.6
same,"Total Incontinence, Active - Placebo LS Mean Difference (SE)",Week 4,−0.5 (0.15)
same,"Urgency episodes, Active - Placebo LS Mean Difference",Week 4,−0.7
same,"First 50% Reduction in Urgency Episodes, Events",[7],81/336
same,"First 100% Reduction in UUI Episodes, Events",[7],24/295
same,"Average Daily Number of Total Incontinence, Mean (SD)",Week 8,2.20 (2.673)
